Data from patent publication US11771685B2, “Compounds for the treatment of neurological or mitochondrial diseases” (MUSC FOUNDATION FOR RESEARCH DEVELOPMENT, priority 2018, dated 2023).
pEC50: −log10 of the molar value.

Tests used:
Zebrafish larvae = assay: In vivo toxicology in zebrafish larvae; details: for concentration lethal/toxic at 24 hr / overt toxicity observation: 7 dpf larvae; for overt toxicity observation: 5-20 μM, observed 1, 5 and 24 hr
Procedure: Zebrafish larvae, 7 days post-fertilization (dpf), were exposed to compounds at 20, 15, 10, and 5 μM, six larvae per compound. Animals were observed 1, 5, and 24 hr after dosing for overt toxicity (altered survival, morbidity, morphological deformity). Heart rate, behavior, and startle response were monitored at each time point.
Zebrafish (AB strain) were obtained from the Zebrafish International Resource Center (supported by P40 RR012546 from NIH—NCRR). Zebrafish were maintained and crossed according to standard methods (Westerfield, 2000). Fertilized eggs were collected and placed in E3 embryo medium and positioned in an incubator set at 28.5° C. with a 14/10-hr light/dark cycle (Kimmel et al., 1995). To determine the lethal dose of each compound, 96-well plates containing one zebrafish (7 days post-fertilization, dpf) per well in 100 μL of tank water were used. 100 μL of each compound (0.5-15 μM) was added to each well for 12 animals (one row) for a final volume of 200 μL. One row of larvae was used as dimethyl sulfoxide (DMSO)-only controls. […] All zebrafish studies were approved by the Medical University of South Carolina Institutional Animal Care and Use Committee (#180278) and performed in accordance with the guidelines.
Using a 96-well plate, 7 dpf zebrafish were placed one per well with 100 μL of tank water. 100 μL of each compound was then added to each well for 12 animals (one row) for a final volume of 200 μL. One row of zebrafish larvae was used as DMSO only controls.

HT22 cells = assay: HT22 oxytosis (glutamate-induced cell death) neuroprotection assay; assay type: cell-based, mouse; details: Mus musculus, 10 mM Glu
Procedure: The HT22 murine hippocampal cell system was chosen as an initial phenotypic screen for neuroprotective efficacy (Andreux et al., 2013; Andreux et al., 2014; Ohlow et al., 2017; Schubert and Maher, 2012). HT22 cells exposed to high extracellular Glu ([…]) undergo oxytosis, a non-apoptotic programmed cell death involving glutathione (GSH) depletion followed by ROS accumulation, oxidative damage, and a cytotoxic signaling cascade (Tan et al., 2001). Glu blocks the −xC cystine antiporter, causing (Tan et al., 2001) cells to accumulate severe oxidative stress, mitochondrial depolarization, disrupted mitochondrial morphology, and Ca^2+ influx (Tan et al., 2001; Yang et al., 2011; Cheng et al., 2013—cellular events that may occur in neurological diseases, including epilepsy. Thus, the immortalized HT22 cell line is a well-established model of neuronal oxidative stress (Sagara and Schubert, 1998; Matsumoto et al., 1996; Albrecht et al., 2010; Ha and Park, 2006; van Leyen et al., 2005; Tobaben et al., 2011), and a verified model of neurodegeneration to screen for potential neuroprotective drugs (Albrecht et al., 2010; van Leyen et al., 2008; Lewerenz et al., 2009; Lewerenz et al., 2003).
Consistent with that work, most of the 2-amino compounds achieved protection of HT22 cells against glutamate-induced oxytosis in the nM to μM range. […] Neuroprotection based on relative cell viability compared to +Glu and −Glu control cells was measured.
The HT22 neuronal cell line is a subclone of HT4, derived from the mouse hippocampus (Morimoto and Koshland, 1990). […] The HT22 cells used in this study were kindly provided by Dr. David Schubert (The Salk Institute for Biological Studies, La Jolla, CA, USA). The cells were grown in Dulbecco's Modified Eagle's Medium (DMEM/high glucose) supplemented with 10% fetal bovine serum (Hyclone) and 5 mL of antibiotic-antimycotic (Amphotericin B, Penicillin, and Streptomycin; Invitrogen) at 37° C. in 5% CO2.
HT-22 cells were seeded onto 96-well plates at 2.5×10^3 cells per well in 75 μL of medium and maintained at 37° C. in 5% CO2 overnight prior to the initiation of experimental treatments. For glutamate toxicity testing, cells were subsequently treated with 25 μL of medium containing glutamate (monosodium glutamate, Sigma, 1 M stock concentration in media, to achieve a final concentration of 10 mM) plus compound (stock in DMSO) and maintained at 37° C. in 5% CO2 for 24 hr. CellTiter-Blue® (resazurin cell viability assay reagent) was then added to each well at a final concentration of 0.125 mg/mL. The mixture was allowed to incubate for 2-4 hr until sufficient color change occurred. Cell viability was measured as a function of resorufin fluorescence intensity using a Tecan M200 Pro spectrophotometer, 560 nm/590 nm (excitation/emission). Cell viability was calculated as a percentage compared with untreated controls. EC50s were determined using GraphPad Prism's “log(inhibitor) vs. normalized response-Variable slope” function. Morphology of HT22 cells following treatments was determined by phase-contrast microscopy.
(§1) Statistical analyses were performed with GraphPad Prism 6 software. For the in vitro HT22 oxytosis assay, dose-response data were fit using GraphPad Prism's log(inhibitor) vs normalized response-variable slope parameters to determine EC50 values and 95% confidence intervals. For the zebrafish locomotive anti-seizure activity data, multiple comparisons were made using a one-way analysis of variance (ANOVA) with a Kruskal-Wallis Test, followed by the Dunn's Method to determine significant differences between all pairs or between control and experimental groups using the Dunn Method for Joint Ranking. Differences were considered statistically significant when p<0.05. Data from zebrafish experiments are represented as scatter dot plots of individual measurements, with means±standard deviation indicated by bars.

[1] = test system: PTZ-induced seizure activity in zebrafish larvae; assay: Zebrafish PTZ-induced seizure model; assay type: in vivo; details: Danio rerio; for minimal effective concentration: 7 dpf larvae, 1 hr pre-treatment, 10 mM PTZ, read-out: Anti-seizure activity: lowest tested dose with significant difference vs PTZ-only group
Procedure: The zebrafish PTZ-induced seizure model was used to determine the most promising compounds' in vivo efficacy. Zebrafish larvae (7 dpf) were treated with the compound for 1 hr prior to inducing seizures with PTZ. As established by previous larval zebrafish anti-seizure studies (Rahn et al., 2014; Hansen et al., 2004; Baraban et al., 2005), total distance traveled by each fish after seizure induction was measured and used as a proxy for seizure activity. Following collection of locomotor data, observation of a startle response and visual inspection for abnormal morphology confirmed that alterations in swim activity were not caused by compound toxicity.
We induced seizures in 7 dpf zebrafish larvae by the addition of […] PTZ as originally developed by Baraban et al., 2005. In a 48-well plate, one 7-dpf zebrafish was added per well. Larvae were dosed with each compound at a sub-lethal dose 1 hr prior to PTZ treatment. Two control rows were included with each experiment—tank water only control and PTZ only. Seizures were induced by adding PTZ to wells to yield a final concentration of 10 mM. After 5 min, the plate was transferred to the Daniovision instrument (Noldus Information Technology) and the chamber light was turned on. After 2 min, MediaRecorder (Noldus) was used to record video for 15 min. A small number of videos were acquired at 25 frames per second, but the majority of data were acquired at 60 frames per second. […] Ethovision XT software (Noldus) was used to track the fish movement from the video images in order to calculate the total distance traveled over 15 min. All experimental comparisons were made between animals from the same clutch.
as §1

[2] = HT-22, 24 h, HT22 cells, 24 hr, 95% CI in parentheses
[3] = read-out: reduction of PTZ-induced locomotor activity

SMILES	pEC50 (HT22 cells; [2])	pEC50 (HT22 cells; HT-22, HT22 cells)	minimal effective concentration [1] [µM]	overt toxicity observation (Zebrafish larvae)	further results
C#CC(C)NC1=CC(=O)c2ccccc2C1=O (racemic) [Compound 19, Rac-2-(but-3-yn-2-ylamino)naphthalene-1,4-dione]	5.67	~5.82	> 10	–	fish dead (Zebrafish larvae; 10 μM, 5 hr): ⅙; toxic concentration (Zebrafish larvae; AB, zebrafish, in vivo, 5 hr): ≥ 10 µM
CC#CCNC1=CC(=O)c2ccccc2C1=O [Compound 2, 2-(But-2-yn-1-ylamino)naphthalene-1,4-dione]	5.91	–	> 20	–	fish dead (Zebrafish larvae; 5 μM, 24 hr): ⅚; concentration lethal/toxic at 24 hr (Zebrafish larvae; 24 hr): ≥ 10 µM; inhibition in vivo at 40 µM ([1]; 40 μM, read-out: reduction of PTZ-induced locomotor activity): 89%
CCCC#CCNC1=CC(=O)c2ccccc2C1=O [Compound 4, 2-(Hex-2-yn-1-ylamino)naphthalene-1,4-dione]	6.00	–	> 20	–	fish dead (Zebrafish larvae; 10 μM, 24 hr): ⅙; inhibition in vivo at 10 µM [1, 3]: ~80%; inhibition in vivo at 20 µM ([1]; 20 μM, read-out: reduction of PTZ-induced locomotor activity): ~80%
CCCCC#CCNC1=CC(=O)c2ccccc2C1=O [Compound 5, 2-(Hept-2-yn-1-ylamino)naphthalene-1,4-dione]	5.80	–	≤ 5	–	concentration lethal/toxic at 24 hr (Zebrafish larvae; 24 hr): 20 µM; inhibition in vivo at 5 µM ([1]; 5 μM, read-out: reduction of PTZ-induced locomotor activity): 84%; inhibition in vivo at 10 µM [1, 3]: 77%
O=C1C=C(NCC#Cc2ccccc2)C(=O)c2ccccc21 [Compound 8, 2-((3-Phenylprop-2-yn-1-yl)amino)naphthalene-1,4-dione]	–	–	–	not lethal at any concentration	pEC50 (HT22 cells; HT-22, HT22 cells, 24 hr, 95% CI in parentheses): 6.79
CS(=O)(=O)Nc1cccc(C#CCNC2=CC(=O)c3ccccc3C2=O)c1 [Compound 14, N-(3-(3-((1,4-dioxo-1,4-dihydronaphthalen-2-yl)amino)prop-1-yn-1-yl)phenyl)methanesulfonamide]	5.71	~5.70	–	–	concentration lethal to all fish (Zebrafish larvae; after 5 hr): 10 µM
CC#CCCNC1=CC(=O)c2ccccc2C1=O [Compound 15, 2-(Pent-3-yn-1-ylamino)naphthalene-1,4-dione]	5.54	< 5.70	–	acutely lethal to most fish at the lowest concentration after 1 hr	–
CCC#CCCNC1=CC(=O)c2ccccc2C1=O [Compound 16, 2-(Hex-3-yn-1-ylamino)naphthalene-1,4-dione]	5.25	< 5.70	–	acutely lethal to most fish at the lowest concentration after 1 hr	–
